Experimental data from patent US20230200424A1, “COMPOSITIONS COMPRISING CYS-PEPTIDES” (Evonik Operations GmbH, priority 2020, published 2023).
“Also recorded” adds a separate entry of the source. Where two headings read alike, the source gives them in different places. Where a SMILES comes first, the peptide text is derived from it. Bridges are numbered along the chain shown (N, C = ends). Roman numbers before positions name the chains, in order.

What was measured:
[1] = Solubility of (Ala-Cys)2 and its solubilization by addition of cysteine, turbidity at 600 nm; type: physicochemical
Protocol: Turbid suspensions of 50 mM (Ala-Cys)2 in phosphate buffer at pH=7 were prepared and increasing amounts of cysteine were added. The mixtures were incubated at 37° C. in a microtiter plate (liquid volume per well was 200 μl) and turbidity at 600 nm was measured after 30 minutes. At concentrations of 20 mM of cysteine and higher, (Ala-Cys)2 was fully solubilized and no further reduction of turbidity was measured. Solutions were visually transparent (see FIG. 2).

[2] = pH range between 3 and 9; cited from earlier work
[3] = Stabilization of 25 mM and 50 mM cysteine solutions against precipitation by Cys-dipeptides under oxidizing conditions (H2O2), turbidity at 600 nm; type: physicochemical; details: H2O2 added, after 4.5 hours
Protocol: (§1) Turbidity caused by precipitation was measured photometrically at 600 nm in a microtiter plate-based assay. Liquid volume per well was 200 μl and measurements were conducted over 24 hours at 37° C. in a microplate reader (Tecan). The plates were not covered with a lid.
(§2) An experiment as described in example 1 was conducted in a microtiter plate. After two hours of incubation at 37° C., 14 μl of a 5 weight % H2O2 solution were added to each well to accelerate oxidation and evaluate stabilization under fully oxidized conditions. […] Turbidity measurements in the microplate reader were continued subsequently. Results are shown in Fehler! Verweisquelle konnte nicht gefunden werden.
To evaluate if the above described stabilization is also possible by addition of other Cys-dipeptides, experiments as described in example 4 were conducted with the exception that reduced cysteine concentrations of 50 mM and 25 mM were used and that the concentrations of added Cys-dipeptides were 0 (=control), 5, 10, 25 and 50 mM. The effect of (Asp-Cys)2, (Cys-Asp)2, (Lys-Cys)2, (Cys-Lys)2, (Ala-Cys)2 and (Pro-Cys)2 was evaluated. All Cys-peptides were able to prevent precipitation from the cysteine solutions after addition of H2O2 Differences in stabilization efficiency were observed between the various Cys-Peptides at cysteine concentrations of 50 mM. The Cys-dipeptides containing lysine residues were the most efficient stabilizers and a molar Cys-peptide to cysteine ratio between 1:2 and 1:5 provided sufficient stability.

[4] = Stabilization of 50 mM cysteine solution against precipitation by reduced and oxidized Cys-dipeptides under oxidizing conditions (H2O2), turbidity at 600 nm; type: physicochemical; details: H2O2 added; for Turbidity at 600 nm: after 4.5 hours
Protocol: as §1, §2
To evaluate if the above described stabilization is also possible by addition of reduced Cys-dipeptides (=free thiol), the same experimental setup as described in example 4 was chosen. In this case, various concentrations of the reduced dipeptide Cys-Gly and of the oxidized dipeptide (Cys-Gly)2 were added to a 50 mM cysteine solution. Both Cys-peptides were able to prevent precipitation from the cysteine solutions after addition of H2O2.

[5] = Precipitation from a 100 mM cysteine solution with added (Lys-Cys)2, turbidity at 600 nm in microtiter plate; type: physicochemical; details: 24 hours
Protocol: Solutions of substances and dilutions thereof were prepared in 100 mM phosphate buffer, pH=7 in all experiments in all examples. Precipitation could be avoided in a 100 mM solution of cysteine in a 100 mM phosphate buffer at pH=7 by the addition of suitable concentrations of (Lys-Cys)2.
as §1
When 100 mM solutions of cysteine were prepared with 0, 100, 200 or 400 mM (Lys-Cys)2×2 HCl at pH=7, a surprising result was obtained. Precipitation could be seen and measured in the absence of added peptide. […] The precipitates could be observed visually and measured via turbidimetry (see FIG. 1).

[6] = Stabilization of a 100 mM cysteine solution against precipitation by (Lys-Cys)2 under oxidizing conditions (H2O2), turbidity; type: physicochemical
Protocol: as §1, §2
The mixtures were incubated in a microplate for 2 hours at 37° C. and turbidity was measured photometrically. H2O2 was subsequently added to accelerate oxidation and evaluate stability against precipitation under fully oxidized conditions. Turbidity measurement was continued directly after H2O2 addition. With cysteine alone, the solution turned directly and visibly turbid, when H2O2 was added. With increasing amounts of added (Lys-Cys)2, the amount of precipitate measured via turbidity was reduced.

[7] = 25 mM cysteine solution, Cys-peptide 5 mM
[8] = 25 mM cysteine solution, Cys-peptide 10 mM
[9] = 25 mM cysteine solution, Cys-peptide 25 mM
[10] = 25 mM cysteine solution, Cys-peptide 50 mM
[11] = 50 mM cysteine solution, Cys-peptide 5 mM
[12] = 50 mM cysteine solution, Cys-peptide 10 mM
[13] = 50 mM cysteine solution, Cys-peptide 25 mM
[14] = 50 mM cysteine solution, Cys-peptide 50 mM

Compound | Turbidity at 600 nm [3, 7] | Turbidity at 600 nm [3, 8] | Turbidity at 600 nm [3, 9] | Turbidity at 600 nm [3, 10] | Turbidity at 600 nm [3, 11] | Turbidity at 600 nm [3, 12] | Turbidity at 600 nm [3, 13] | Turbidity at 600 nm [3, 14] | also measured
C[C@H](N)C(=O)N[C@@H](CSSC[C@H](NC(=O)[C@H](C)N)C(=O)O)C(=O)O [(Ala-Cys)2] (I: H-Ala-Cys-OH / II: H-Ala-Cys-OH; disulfide I:2-II:2; N-terminus and C-terminus assumed) |  |  |  |  |  |  |  |  | solubility ([1]; 50 mM (Ala-Cys)2 suspension, phosphate buffer pH=7, 37° C., turbidity at 600 nm after 30 minutes, read-out: concentration of cysteine at which 50 mM (Ala-Cys)2 was fully solubilized): ≥ 20 mM; solubility ([1]; pH=7 and 37° C., read-out: maximum solubility): < 50 mM
N[C@@H](CSSC[C@H](N)C(=O)O)C(=O)O [cystine] |  |  |  |  |  |  |  |  | solubility [2]: < 1 mM
(Cys-Asp)2 | 0.081 AU | 0.037 AU | 0.038 AU | 0.040 AU | 1.702 AU | 1.523 AU | 0.279 AU | 0.039 AU | 
(Cys-Gly)2 |  |  |  |  |  |  |  |  | Turbidity at 600 nm ([4]; Cys-peptide 5 mM): 1.07 AU; Turbidity at 600 nm ([4]; Cys-peptide 10 mM): 0.07 AU; Turbidity at 600 nm ([4]; Cys-peptide 25 mM): 0.04 AU; Turbidity at 600 nm ([4]; Cys-peptide 50 mM): 0.04 AU; peptide concentration at which precipitation was completely suppressed [4]: 25 mM
Cys-Gly |  |  |  |  |  |  |  |  | Turbidity at 600 nm ([4]; Cys-peptide 5 mM): 0.58 AU; Turbidity at 600 nm ([4]; Cys-peptide 10 mM): 0.37 AU; Turbidity at 600 nm ([4]; Cys-peptide 25 mM): 0.26 AU; Turbidity at 600 nm ([4]; Cys-peptide 50 mM): 0.04 AU; peptide concentration at which precipitation was completely suppressed [4]: 50 mM

Now from value to compound, other results behind:

Turbidity at 600 nm [3, 7] | Turbidity at 600 nm [3, 8] | Turbidity at 600 nm [3, 9] | Turbidity at 600 nm [3, 10] | Turbidity at 600 nm [3, 11] | Turbidity at 600 nm [3, 12] | Turbidity at 600 nm [3, 13] | Turbidity at 600 nm [3, 14] | Compound | also measured
0.038 AU | 0.039 AU | 0.038 AU | 0.040 AU | 1.453 AU | 1.301 AU | 0.039 AU | 0.042 AU | (Asp-Cys)2 | 
0.044 AU | 0.050 AU | 0.068 AU | 0.084 AU | 0.390 AU | 0.092 AU | 0.067 AU | 0.077 AU | (Cys-Lys)2 | 
0.039 AU | 0.041 AU | 0.042 AU | 0.047 AU | 0.946 AU | 0.556 AU | 0.045 AU | 0.047 AU | (Lys-Cys)2 | precipitation (visual, turbidimetry) ([5]; 100 mM cysteine with 100 mM (Lys-Cys)2, pH=7, 37° C.): accelerated precipitation; precipitation (visual, turbidimetry) ([5]; 100 mM cysteine with 200 mM (Lys-Cys)2, pH=7, 37° C.): effectively prevented precipitation; precipitation (visual, turbidimetry) ([5]; 100 mM cysteine with 400 mM (Lys-Cys)2, pH=7, 37° C.): effectively prevented precipitation; precipitate after H2O2 addition ([6]; 100 mM cysteine with 400 mM (Lys-Cys)2): no precipitate was observed; also recorded: remained completely clear; turbidity directly after addition of H2O2 ([6]; 100 mM cysteine with (Lys-Cys)2, 2 hours at 37° C., then H2O2): no immediate increase in turbidity was observed; turbidity increase after H2O2 addition ([6]; 100 mM cysteine, increasing concentrations of (Lys-Cys)2): strongly reduced
0.078 AU | 0.039 AU | 0.040 AU | 0.042 AU | 1.539 AU | 1.379 AU | 0.762 AU | 0.118 AU | (Pro-Cys)2 | 
